According to US20130261134A1, “MESYLATE SALT FORMS OF A POTENT HCV INHIBITOR” (Boehringer Ingelheim International GmbH, priority 2012, published 2013):

Assay: Solubility in the physiological pH range
Assay type: physicochemical
Conditions: aqueous buffer; physiological pH range of 2-6.8

solubility: < 0.2 µg/mL
Compound: Cn1c(C2(NC(=O)c3ccc4c(C5CCCC5)c(-c5ncc(Br)cn5)n(C)c4c3)CCC2)nc2ccc(/C=C/C(=O)O)cc21 [Compound (1), (E)-3-[2-(1-{[2-(5-Bromo-pyrimidin-2-yl)-3-cyclopentyl-1-methyl-1H-indole-6-carbonyl]-amino}-cyclobutyl)-3-methyl-3H-benzimidazol-5-yl]-acrylic acid]
